Results on 40 compounds are retold here after US11865176B2, “Compositions and methods of modulating anti-tumor immunity” (Dana-Farber Cancer Institute, Inc., priority 2016, dated 2024).

The subject of the test is PD-1-overexpressing Jurkat cells. As to the kind of experiment: Small molecule screen: IL2 secretion (AlphaLISA) from stimulated PD-1-overexpressing Jurkat cells. Type of test: cell-based, human. To be noted: 3.3 μM compound; for Zscore_1 / Zscore_2: IL2 level, α-CD3/α-CD28/α-PD-1 beads; for Zscore_1: replicate 1; for Zscore_2: replicate 2; for Zscore_AVG: average of replicate Z scores. The method, then: PD-1-overexpressing Jurkat cells were plated at a concentration of 100,000 cells/well in a total volume of 80 μl. […] Dynabeads conjugated to α-CD3, α-CD28, and α-PD-1 antibodies were added in 20 for a final assay volume of 100 with a final compound concentration of 3.3 μM and an 8:1 bead:cell ratio. Beads were conjugated to α-CD3/α-CD28/control IgG and added to wells containing DMSO-treated cells as a positive control, while beads conjugated to α-CD3/α-CD28/α-PD1 were added to wells containing DMSO-treated cells as a negative control. Supernatants from each well were analyzed for IL2 levels by AlphaLISA (Perkin Elmers) according to the manufacturer's protocol. Average and standard deviation values were calculated from the PD-1 controls (DMSO-treated cells stimulated with α-CD3/α-CD28/α-PD-1 beads); hits were defined as compounds scoring at least 3 standard deviations from the mean of the controls.
In addition to known negative regulators of IL-2 production (e.g. glycogen synthase kinase-3α/β (GSK3α/β) (24,25)), this screen identified cyclin-dependent kinases 4 and 6 inhibitors (CDK4/6i) as top hits (Table 1).
On the technique in general: Alpha assays give light when donor and acceptor beads are brought close together.

In turn, `CCN1/C(=C/C(C)=O)Sc2ccc(OC)cc21` [Cdc2-Like Kinase Inhibitor, TG003] yielded a Zscore_1 of −1.367, a Zscore_2 of −2.423 and a Zscore_AVG of −1.895.

With `O=C1NCCc2[nH]c(-c3ccncc3)cc21` [Cdc7/Cdk9 Inhibitor], the Zscore_1 is −9.816, the Zscore_2 is recorded as −10.33 and the Zscore_AVG was −10.08.

The compound `O=C1NC(=NCc2cccs2)S/C1=C\c1ccc2ncccc2c1` [Cdk1 Inhibitor IV, RO-3306] displayed a Zscore_1 of −4.188, a Zscore_2 of −2.228 and a Zscore_AVG of −3.208.

With `CCn1cnc2c(Nc3cccc(Cl)c3)nc(N[C@@H]3CCCC[C@@H]3N)nc21` [Cdk1 Inhibitor, CGP74514A], the Zscore_1 was determined as 1.595, the Zscore_2 is −1.02 and the Zscore_AVG is recorded as 0.2878.

The compound `O=C1Nc2ccccc2/C1=C\c1c(Cl)[nH]c2ccccc12` [Cdk1 Inhibitor] showed a Zscore_1 of −0.7783, a Zscore_2 of −0.6137 and a Zscore_AVG of −0.696.

Turning to `Nc1nc(Nc2ccc(S(N)(=O)=O)cc2)nn1C(=S)Nc1c(F)cccc1F` [Cdk1/2 Inhibitor III], the Zscore_1 is −10.55, the Zscore_2 is reported as −11.64 and the Zscore_AVG is reported as −11.1.

As to `Nc1[nH]nc2nc3ccccc3nc12` [Cdk1/5 Inhibitor], the Zscore_1 was −2.414, the Zscore_2 is given as −4.695 and the Zscore_AVG is given as −3.555.

In turn, `COc1ccc(CNc2nc(N(CCO)CCO)nc3c2ncn3C(C)C)cc1` [Cdk2 Inhibitor III] came in with a Zscore_1 of −2.414, a Zscore_2 of −4.745 and a Zscore_AVG of −3.58.

For the compound `NS(=O)(=O)c1ccc(N/N=C2\C(=O)Nc3ccc(Br)cc32)cc1` [Cdk2 Inhibitor II], the Zscore_1 is recorded as −0.2096, the Zscore_2 is −0.6424 and the Zscore_AVG is listed as −0.426.

In turn, `CCN(CC)C(=O)c1ccc(Nc2nc(OCC3CCCCC3)c3[nH]cnc3n2)cc1` [Cdk2 Inhibitor IV, NU6140] displayed a Zscore_1 of −4.843, a Zscore_2 of −6.155 and a Zscore_AVG of −5.499.

With `Cc1nc(N)sc1-c1ccnc(Nc2cccc([N+](=O)[O-])c2)n1` [Cdk2/9 Inhibitor], the Zscore_1 is on record as −10.43, the Zscore_2 is on record as −10.59 and the Zscore_AVG is recorded as −10.51.

The compound `COc1ccc(OC)c2c(=S)c3ccccc3[nH]c12` [Cdk4 Inhibitor II, 625987] displayed a Zscore_1 of 0.5748, a Zscore_2 of −1.274 and a Zscore_AVG of −0.3496.

Take `Cc1ccc(NC2=CC(=O)c3sc(C)nc3C2=O)cc1` [Cdk4 Inhibitor III]: the Zscore_1 is listed as −6.073, the Zscore_2 is recorded as −8.107 and the Zscore_AVG was −7.09.

Take `O=C1NC(=O)c2c1c1c3ccccc3[nH]c1c1[nH]c3cc(Br)ccc3c21` [Cdk4 Inhibitor]: the Zscore_1 is reported as 7.007, the Zscore_2 is 16.07 and the Zscore_AVG was determined as 11.54.

With `Nc1n[nH]c(N)c1N=Nc1ccc(O)cc1` [Cdk9 Inhibitor II], the Zscore_1 is given as −0.7951, the Zscore_2 came out at 0.1385 and the Zscore_AVG is listed as −0.3283.

`CC(C)c1nn(-c2c(Cl)cccc2Cl)c2nc(Cc3ccc(OCCO)cc3)[nH]c(=O)c12` [Cdk/Crk Inhibitor] came in with a Zscore_1 of −10.43, a Zscore_2 of −11.89 and a Zscore_AVG of −11.16.

Compound `COc1ccc2c(c[n+](C)c3c4cc5c(cc4ccc23)OCO5)c1OC` [Chelerythrine Chloride] yielded a Zscore_1 of 0.1826, a Zscore_2 of 0.07537 and a Zscore_AVG of 0.129.

As for `NC(=O)c1ccc2nc(-c3ccc(Oc4ccc(Cl)cc4)cc3)[nH]c2c1` [Chk2 Inhibitor II], the Zscore_1 stood at 2.673, the Zscore_2 was 1.942 and the Zscore_AVG is reported as 2.307.

Regarding `CC(C)n1cnc2c(Nc3cccc(Cl)c3)nc(NCCO)nc21` [Compound 52], the Zscore_1 is reported as −1.412, the Zscore_2 is listed as −0.2643 and the Zscore_AVG is −0.8381.

`CCOc1cc2ncnc(Nc3cccc(Br)c3)c2cc1OCC` [Compound 56] gave a Zscore_1 of −1.072, a Zscore_2 of −2.222 and a Zscore_AVG of −1.647.

Take `O=c1cc(N2CCOCC2)nc2c3ccccc3ccn12` [Compound 401]: the Zscore_1 was found to be 2.829, the Zscore_2 amounted to 15.49 and the Zscore_AVG came to 9.162.

`CN(C)c1ccc(/C=C2\C(=O)Nc3ccccc32)cc1` [DMBI] registered a Zscore_1 of −0.2169, a Zscore_2 of 0.4405 and a Zscore_AVG of 0.1118.

Take `CC(=O)c1ccc(N2CCOCC2)cc1O` [DNA-PK Inhibitor III]: the Zscore_1 amounted to 5.18, the Zscore_2 is 6.23 and the Zscore_AVG is given as 5.705.

Take `O=c1cc(N2CCOCC2)oc2c1ccc1ccccc12` [DNA-PK Inhibitor II]: the Zscore_1 came out at 0.06496, the Zscore_2 amounted to 0.1041 and the Zscore_AVG is on record as 0.08452.

In the case of `O=C(c1ccccc1)c1ccc(N2CCOCC2)cc1O` [DNA-PK Inhibitor V], the Zscore_1 is −2.22, the Zscore_2 is listed as −4.112 and the Zscore_AVG is listed as −3.166.

`O=c1c2ccccc2[nH]c(=S)n1CCN1CCC(=C(c2ccc(F)cc2)c2ccc(F)cc2)CC1` [Diacylglycerol Kinase Inhibitor II] came in with a Zscore_1 of −0.9879, a Zscore_2 of 0.3398 and a Zscore_AVG of −0.324.

Regarding `O=C(Nc1cccc(Nc2cc(Nc3cccc(C(F)(F)F)c3)ncn2)c1)C1CC1` [EGFR Inhibitor], the Zscore_1 is recorded as 2.026, the Zscore_2 was determined as 1.568 and the Zscore_AVG is listed as 1.797.

On to `COc1cc2ncnc(Nc3ccc(OCc4ccccc4)cc3)c2cc1OC` [EGFR/ErbB-2 Inhibitor], for which the Zscore_1 is reported as 0.09156, the Zscore_2 came out at 4.015 and the Zscore_AVG was found to be 2.053.

The compound `CC#CC(=O)Nc1cc2c(Nc3ccc(F)c(Cl)c3)ncnc2cn1` [EGFR/ErbB-2/ErbB-4 Inhibitor] gave a Zscore_1 of 0.4572, a Zscore_2 of 0.3338 and a Zscore_AVG of 0.3955.

`Nc1[nH]nc2nnc(-c3c(-c4ccccc4)nn4ccccc34)cc12` [ERK Inhibitor II, FR180204] displayed a Zscore_1 of −2.073, a Zscore_2 of −4.806 and a Zscore_AVG of −3.439.

Compound `O=c1[nH][nH]c2nnc(-c3c(-c4ccccc4)nn4ccccc34)cc12` [ERK Inhibitor II, Negative Control] displayed a Zscore_1 of −1.778, a Zscore_2 of 1.052 and a Zscore_AVG of −0.3634.

In turn, `N/C(=N\[N+](=O)[O-])N/N=C\c1ccc(-c2cccc([N+](=O)[O-])c2)o1` [ERK Inhibitor III] had a Zscore_1 of 0.9783, a Zscore_2 of 2.555 and a Zscore_AVG of 1.767.

In turn, `O=C1c2ccccc2-[n+]2ccc3c([nH]c4ccccc43)c21` [Fascaplysin, synthetic] had a Zscore_1 of −6.289, a Zscore_2 of −8.222 and a Zscore_AVG of −7.256.

`c1ccc(-c2cnc(Nc3ccc(OCCN4CCCC4)cc3)s2)cc1` [Flt-3 Inhibitor III]: the Zscore_1 is 1.171, the Zscore_2 was found to be 3.361 and the Zscore_AVG amounted to 2.266.

In the case of `O=C(c1cc2cc(O)ccc2[nH]1)c1cc2cc(O)ccc2[nH]1` [Flt-3 Inhibitor II], the Zscore_1 is reported as 1.536, the Zscore_2 was determined as 2.085 and the Zscore_AVG is recorded as 1.81.

The compound `COc1ccc(C(=O)Nc2sc3c(c2C(N)=O)CCCC3)cc1OC` [Flt-3 Inhibitor] displayed a Zscore_1 of 1.516, a Zscore_2 of 2.085 and a Zscore_AVG of 1.801.

The compound `Cn1c2ccccc2c2c3c(c4c5ccccc5n(CCC#N)c4c21)CNC3=O` [G? 6976] showed a Zscore_1 of −6.424, a Zscore_2 of −4.191 and a Zscore_AVG of −5.308.

`COc1ccc2c(c1)c(C1=C(c3c[nH]c4ccccc34)C(=O)NC1=O)cn2CCCN(C)C` [G? 6983] yielded a Zscore_1 of −9.778, a Zscore_2 of −9.075 and a Zscore_AVG of −9.426.

The compound `CN1C(=O)/C(=C2\Nc3ccccc3\C2=N/O)c2ccc(Br)cc21` [GSK-3 Inhibitor IX, Control, MeBIO] came in with a Zscore_1 of 1.104, a Zscore_2 of 1.769 and a Zscore_AVG of 1.437.

Turning to `O=C1Nc2cc(Br)ccc2/C1=C1/Nc2ccccc2/C1=N\O` [GSK-3 Inhibitor IX], the Zscore_1 is listed as 25.07, the Zscore_2 amounted to 34.88 and the Zscore_AVG turned out to be 29.98.
